According to patent US20210330611A1, “THERAPY FOR NEUROLOGICAL DISEASES/DISORDERS” (priority 2020, published 2021):
Read-outs that look alike come from different tables or passages of the source.

How the values were obtained:
[1] = tested on: fibrin- and LPS-induced microglia activation; test: cells; format: cell-based, rat; conditions: for inhibition at 10 µM: Rattus norvegicus; for Activity: Table 7, fib = fibrin, LPS, tox = toxicity
primary rat microglia [2] = test: Cell toxicity (dead cells, size <150 μm2) in LPS assay; conditions: for LPS % cell toxicity: primary microglia HTS, LPS stimulation; for IC50: read-out: Cell Toxicity IC50 (uM) [LPS assay], LPS assay
[3] = tested on: fibrin-induced microglia activation; test: Image-based assay of fibrin-induced microglia activation (HTS and dose response); format: cell-based, rat; conditions: for IC50 / inhibition at 10 µM: Rattus norvegicus, Microglia; for inhibition at 10 µM: primary microglia HTS, fibrin stimulation, read-out: Fibrin % inhibition
in vitro [4] = conditions: rat, Cell Toxicity IC50 (uM) [cFib assay]
in vitro [5] = conditions: rat
[6] = tested on: LPS-induced microglia activation; test: Image-based assay of LPS-induced microglia activation (HTS and dose response); format: cell-based, rat; conditions: Rattus norvegicus, Microglia; for inhibition at 10 µM: primary microglia HTS, LPS stimulation, read-out: LPS % inhibition
primary rat microglia [7] = test: Cell toxicity (dead cells, size <150 μm2) in coated fibrin (cFib) assay; conditions: primary microglia HTS, fibrin stimulation;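 for Fibrin % cell toxicity: share of dead cells sized under 150 µm2 at 10 µM in fibrin-stimulated microglia HTS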
[8] = HTS of 1907 compounds, quadrant by fibrin and LPS inhibition
[9] = Microglia, HTS hit classification, read-out: Hit
[10] = hit classification in microglia HTS, read-out: Cherry-picked Hit (Suppl. Table 7)
[11] = decreased size (<150 μm^2) as marker of toxicity
[12] = 48 h, Table 1, dose response 0.001-20 μM, triplicates, primary rat microglia, 48 h, read-out: Fibrin IC50
[13] = dose response, fibrin-induced microglia activation, read-out: Fibrin IC50
[14] = fibrin-induced microglia activation, dose response, read-out: Fibrin IC50 (uM) (Suppl. Table 7)
[15] = increased cell size (>800 μm^2) as marker of activation
[16] = 48 h, Table 1, dose response 0.001-20 μM, triplicates, primary rat microglia, 48 h, read-out: LPS IC50
[17] = 48 h, increased cell size (>800 μm^2) as marker of activation
[18] = LPS-induced microglia activation, dose response, read-out: LPS IC50 (uM) (Suppl. Table 7)
[19] = dose response, LPS-induced microglia activation, read-out: LPS IC50
[20] = quadrant by fibrin and LPS inhibition in HTS of 1907 compounds

SMILES | Quadrant (FIG. 5b) [1, 8] | inhibition at 10 µM [1, 9] [%] | inhibition at 10 µM [1, 10] [%] | Quadrant (FIG. 5b) ([1]; Table 1, screen at 10 μM) | Quadrant (FIG. 5b) ([1]; Table 2, screen at 10 μM) | Activity [1] | LPS % cell toxicity (primary rat microglia [2]; [11]) [%] | IC50 [3, 12] [µM] | IC50 ([3]; Table 7, read-out: fib_IC50) [µM] | IC50 [3, 13] [µM] | IC50 [3, 14] [µM] | inhibition at 10 µM [3, 15] [%] | IC50 (in vitro [4]; cFib assay) [µM] | IC50 (in vitro [5]) [nM] | IC50 [6, 16] [µM] | inhibition at 10 µM [6, 17] [%] | IC50 [6, 18] [µM] | IC50 [6, 19] [µM] | Fibrin % cell toxicity (primary rat microglia [7]; [11]) [%] | Quadrant (FIG. 5b) [1, 20] | also measured
CC1(C)O[C@@H]2C[C@H]3[C@@H]4C[C@H](F)C5=CC(=O)C=C[C@]5(C)[C@@]4(F)[C@@H](O)C[C@]3(C)[C@]2(C(=O)CO)O1 [Fluocinolone acetonide, reference compound] | Q2 | > 50 | > 50 | Q2 | Q2 | fib/LPS | 4 | < 0.001 | 0.002 | < 0.001 | < 0.001 | 105 | > 20 | > 20000 | < 0.001 | 104 | < 0.001 | < 0.001 | 2 |  | LPS % cell toxicity (primary rat microglia [2]; toxicity = cell size <150 μm2): 0%; inhibition at 10 µM ([3]; activation = cell size >800 μm2): -35%; inhibition at 10 µM ([6]; 48 h, activation = cell size >800 μm2): 10%; IC50 ([6]; Table 7, read-out: LPS_IC50): 0.002 µM; Fibrin % cell toxicity (primary rat microglia [7]; toxicity = cell size <150 μm2): 1%
Cc1cccc(C)c1NC(=O)c1ccccc1C(=O)O [Ftaxilide, reference compound] | Q3 | > 50 | > 50 | Q3 |  |  | 1 | > 20 |  | > 20 | > 20 | 78 | > 20 | > 20000 | > 20 | 42 | > 20 | > 20 | 2 | Q3 | 
CC(=O)O[C@H]1C[C@@]2(C)[C@@H](C[C@@H](O)[C@H]3[C@@]4(C)CC[C@@H](O)[C@@H](C)[C@@H]4CC[C@@]32C)/C1=C(\CCC=C(C)C)C(=O)O [Fusidic acid, reference compound] | Q2 | > 50 | > 50 | Q2 |  |  | 2 | 19 |  | 19 | 19 | 77 | > 20 | > 20000 | > 20 | 74 | > 20 | > 20 | 1 | Q2 | 
CCCC(=O)O[C@]1(C(=O)CO)CC[C@H]2[C@@H]3CCC4=CC(=O)CC[C@]4(C)[C@H]3[C@@H](O)C[C@@]21C [Hydrocortisone butyrate, reference compound] | Q2 | > 50 |  | Q2 | Q2 | fib/LPS | 2 | 0.02 | 0.071 | 0.02 | 0.02 | 108 | > 20 | > 20000 | 2 | 78 | 2 | 2 | 2 | Q2 | inhibition at 10 µM ([1]; Microglia, Table 3, read-out: Cherry-picked Hit (Suppl. Table 7)): > 50%; Quadrant (FIG. 5b) ([1]; Table 3, screen at 10 μM): Q2; Quadrant (FIG. 5b) ([1]; microglia HTS, Table 6): Q2; IC50 (primary rat microglia [2]): > 20 µM; IC50 (primary rat microglia [2]; Table 6): > 20 µM; Fibrin Selectivity [3]: 89; Fibrin Selectivity (LOG10) [3]: 1.95; IC50 ([3]; Table 3, read-out: Fibrin IC50 (uM) (Suppl. Table 7)): 0.02 µM; IC50 ([3]; Table 6, read-out: Fibrin IC50 (uM) (Suppl. Table 7)): 0.02 µM; IC50 (in vitro [4]; Table 3): > 20 µM; IC50 (in vitro [4]; cFib assay, Table 6): > 20 µM; IC50 ([6]; Table 3, read-out: LPS IC50 (uM) (Suppl. Table 7)): 2 µM; IC50 ([6]; Table 6, read-out: LPS IC50 (uM) (Suppl. Table 7)): 2 µM; IC50 ([6]; Table 7, read-out: LPS_IC50): 0.005 µM
